Columns and labels:
Myzus persicae = Myzus persicae test (cabbage leaf dip, kill rate, Colby synergy); assay type: in vivo
[1] = test system: Phaedon cochleariae larvae; assay: Phaedon cochleariae larvae test (cabbage leaf dip, kill rate, Colby synergy)

Cn1cc(C(=O)Nc2ccccc2C2CC2C2CC2)c(C(F)F)n1 (stereo not drawn) [Compound (I-4)]
0%: Kill in % after 1d (Myzus persicae; Table A1, 200 ppm) | Kill in % after 1d (Myzus persicae; Table A2, 200 ppm) | Kill in % after 4d ([1]; Table B1, 200 ppm) | Kill in % after 6d ([1]; Table B2, 200 ppm, after 6 d) | Kill in % after 4d ([1]; Table B3, 200 ppm) | Kill in % after 4d ([1]; Table B3, 400 ppm)
